From patent publication US20190307713A1, “COMBINATIONS OF DICLOFENAC AND H2 RECEPTOR ANTAGONISTS FOR THE TREATMENT OF PAIN AND INFLAMMATION” (priority 2016, published 2019)

Assays:
[1] = tested on: Caco-2 intestinal permeability model; experiment: Caco-2 permeability study of diclofenac potassium and famotidine separately and in combination; format: in vitro ADME; conditions: Caco-2, 50 μg/ml diclofenac potassium (20 μg/ml famotidine in combination)
Protocol: The permeability study designed using Caco-2 intestinal permeability model was prepared by using Millipore 96 well insert plate as 10,000 cells/well on Feb. 21, 2017 and placed in an incubator. Tests on integrity, viability and permeability were performed on Mar. 15, 2017. Viability results were obtained by MTT and integrity results were obtained using Lucifer yellow and the plate was determined to be eligible for permeability study. […] Methanol was used as solvent for the samples and the samples were analyzed in LC/MSMS 8040 analyzer using mobile phase, Methanol+bidistillated water+Ammonium formate.

in vivo = conditions: male, Wistar, rat, po
Protocol: Male Wistar rats (240-260 g) were maintained in an air conditioned quarters at a temperature of 22±2° C. and a relative humidity of 50±10%. Food and water were allowed ad libitum. The animals were acclimatized to the facilities for five days, and then fasted with free access to water for 12 h prior to the experiment. All these animals were housed under similar conditions.
Blood (0.2 ml) was taken from the tail vein prior to administration of test substances (0 h) and blood was taken after 0.083, 0.167, 0.25, 0.5, 1, 2, 4, 8 and 12 h respectively.
Blood samples were collected in tubes containing %5 Nat-EDTA and kept on ice until dichloromethane was added and they were centrifuged at 7000×g for 5 min at 4° C. and supernatants were collected for HPLC analysis.

[2] = oral, instant or immediate release formulations; cited from earlier work

Structure (SMILES)	Permeability percentage of Diclofenac potassium ([1]; 1 hour)	Permeability percentage of Diclofenac potassium ([1]; 1.5 hours)	Permeability percentage of Diclofenac potassium ([1]; 2 hours)	Permeability percentage of Diclofenac potassium ([1]; 4 hours)	Permeability percentage of Diclofenac potassium ([1]; 8 hours)	Cmax (in vivo)	Tmax (in vivo)	Tmax (time to the maximum plasma concentration) [2]
O=C(O)Cc1ccccc1Nc1c(Cl)cccc1Cl [Diclofenac potassium, 2-[2-(2,6-dichloroanilino)phenyl]acetic acid]	76.93%	80.76%	81.80%	82.22%	86.32%	1.24 ng/mL	15 min	–
O=C(O)Cc1ccccc1Nc1c(Cl)cccc1Cl [diclofenac, 2-[2-(2,6-dichloroanilino)phenyl]acetic acid]	–	–	–	–	–	–	–	about 1 hour
